# Assay results taken from patent US8217071B2, “Use of inhibitors of the degradation of p27, in particular Argyrin and derivatives thereof, for the treatment of proliferative diseases” (Helmholtz Zentrum für Infektionsforschung GmbH, priority 2007, dated 2012).
# Entries after “also recorded” stand apart in the source; their conditions may differ. Numbered stars: 1 amine (or outer) side, 2 acyl side, 3 side chain; on linkers, the order of the positions; unused ones are H or OH. Square brackets hold non-standard residues; d marks the D form. Peptide text beside a SMILES is read from it. dAla(ψthiazole) = C[C@@H](N[*:1])c1nc(C(=O)[*:2])cs1; Trp(4-OMe) = COc1cccc2[nH]cc(C[C@H](N)C(=O)O)c12; Dha = C=C(N)C(=O)O; Sar = CNCC(=O)O
# What was measured:
# H15 (cervix carcinoma) = experiment: MIC (visual), serial dilution, H15; format: cell-based, human; settings: minimal concentration of a serial dilution exhibiting a visual effect
# Source text: The following table summarizes the effects of argyrin-derivatives A to H on two cancer cell lines, H15 (cervix carcinoma) and SW-480 (colon cancer). In order to test the efficacy, a p27-GFP-clone was used.
# p27^kip1 = p27^kip1 expression time course by western blotting; format: cell-based, human; settings: SW480, HCT116 and HeLa cells
# Method: The expression levels of p27^kip1 were determined at the indicated timepoints by western blotting and normalized against actin expression which was used as an internal control.
# Immunohistochemical staining of mouse tumour tissue, western Blotting and immunofluorescence experiments were done as previously described (Timmerbeul, I. et al. Testing the importance of p27 degradation by the SCFskp2 pathway in murine models of lung and colon cancer. Proc Natl Acad Sci USA 103, 14009-14 (2006). Kossatz, U. et al. C-terminal phosphorylation controls the stability and function of p27^kip1. Embo J 25, 5159-70 (2006).). The following antibodies were used: p27 (Cat. No. K25020-150; Transduction Labs), p21 (N20; Santa Cruz), p53 (FL-393; Santa Cruz), NfKB (C-20; Santa Cruz), Bax (P-19; Santa Cruz), Alexa fluor 488 (# A11001; Invitrogen), 20S-proteasome subunit beta 2 (Z) (PW9300; Bio-mol, for human cells), 20S-proteasome subunit beta 2 (Z) (PW8145; BIO TREND, for mouse cells); 20S proteasome subunit beta 1(Y) (PW8140; BIO TREND), 20S proteasome subunit beta 5 (PW8895; BIO TREND); PECAM Antibody clone MEC 13.3 (#550274; BD Pharmingen).
# HeLa cells = experiment: Apoptosis in HeLa cells with p27^kip1 specific siRNA; format: cell-based, human; settings: 24 or 48 hours
# Source text: Next the inventors tested whether the stabilization of p27 was indeed required for the apoptosis inducing function of Argyrin A or was merely a consequence of proteasome inhibition. For this the inventors treated immortalized mouse embryonic fibroblasts from p27^kip1 wildtype or knockout mice with Argyrin A or the proteasome inhibitor bortezomib and assayed cell cycle distribution and apoptosis by flow cytometry. […] These differences in sensitivity in response to Argyrin A treatment were not due to differences in the accumulation of other proteasomal substrates in p27 wildtype and knockout cells as p53 and p21 levels increased in both cell lines in response to Argyrin A (FIG. 6B). To extend this observation to human cancer cells the inventors reduced the levels of p27^kip1 in HeLa cells using p27^kip1 specific siRNA.
# The results shown are the average numbers for six independent experiments. b+d) Wildtype (b) and p27 knockout (d) MEF were treated with Argyrin A or transfected with siRNAs specific for the β1, β2 or β5 subunit of the proteasome for 24 hours. The graphs show the remaining catalytic activity of the different proteasome subunits after Argyrin A or siRNA treatment compared to an untreated control (n=3). […]
# 20S proteasome = 20S proteasome activity in peripheral blood cells after i.p. injection; format: in vivo, mouse; settings: peripheral blood lymphocytes
# Method: The inventors therefore tested if Argyrin A induced p27^kip1 stabilization would be beneficial in the treatment of human colon cancer cell derived tumour xenografts. To analyze this the inventors first tested if Argyrin A was active after application in vivo. After intraperitoneal injection of Argyrin A, 20S proteasome was isolated from peripheral blood lymphocytes at different time points after injection. […] Based on this finding the inventors treated tumour bearing mice with 0.15 mg Argyrin per kilogram bodyweight injected intraperitoneally every three days.
# At the indicated timepoints 20S proteasome was isolated from peripheral blood cells and the activity of the different proteasome subunits was determined as described (FIG. 1d). b) SW480 colon carcinoma cell lines mixed with matrigel were injected under the skin of nu/nu mice to establish xenotransplant tumours. Treatment with Argyrin A or bortezomib was started when these tumours reached a volume of 200 mm^3. […] The activity of the respective proteasome subunits was determined as described previously (FIG. 1d). e) Determination of the number of p27^kip1 positive cells in tumour tissue after Argyrin A treatment. […] At least 200 cells were counted on five independent sections to quantitate the number of apoptotic cells. […]
# Proteasome assays using proteasome purified from cells or tissues were carried out in a 100 μL reaction volume containing 20 μg proteasome extract, 50 mmol/L EDTA and 60 μmol/L fluorogenic substrate (chymotrypsin-like (CT-L), trypsin-like (T-L) or caspase-like (C-L)) in ATP/DTT lysis buffer at 37° C. […] The rate of cleavage of fluorogenic peptide substrates was determined by monitoring the fluorescence of released amonomethylcoumarin using a Victor 1420 Multilabel counter (Wallac) at an excitation wavelength of 395 nm and emission wavelength of 460 nm over a period of 60 min.
# [1] = Body weight and tolerability of treated tumour bearing mice; format: in vivo
structure (smiles),measurement,setting,value
C=C1NC(=O)[C@@H](C)NC(=O)CNC(=O)[C@H](Cc2c[nH]c3cccc(OC)c23)NC(=O)[C@H](Cc2c[nH]c3ccccc23)NC(=O)c2csc(n2)[C@@H](C)NC(=O)CN(C)C1=O [Argyrin A] (cyclo(W[Trp(4-OMe)]G[dA][Dha][Sar][dAla(ψthiazole)])),MIC (visual) H15,H15 (cervix carcinoma),4 µg/mL
same,cellular p27^kip1 levels,p27^kip1,increase
same,apoptosis inducing function in HeLa cells treated with p27siRNA,HeLa cells,completely blocked
same,time at which all activities returned to base-line levels post injection,20S proteasome; i.p.,72 h
same,time of maximum inhibitory activity post injection,20S proteasome; i.p.,48 h
same,proteasome activities after i.p. application,20S proteasome; mice,inhibited all proteasome activities
same,"discomfort, weight loss, disease / tolerability",[1],"very well tolerated; also recorded: did not observe any signs of discomfort, weight loss"
